From patent US10369123B2, “Perk activator for the treatment of neurodegenerative diseases” (DEUTSCHES ZENTRUM FÜR NEURODEGENERATIVE ERKRANKUNGEN E.V. …, priority 2014, dated 2019) come the findings set out here.

Test [1] has as its system LUHMES neurons overexpressing 4R-tau. In words: MTT assay, LUHMES neurons overexpressing 4R-tau. It is filed as cell-based, human. The settings on record: lentiviral 4R-tau overexpression 10 days, co-administration of PERK modulator. The method, then:
Nunc™ Nunclon™ Delta 6-well (for protein and mRNA) or 48-well (for cell assays) plates (Thermo Fisher Scientific, Waltham, Mass., USA) were coated with 100 μg/ml poly-L-lysine (Sigma-Aldrich, St. Louis, Mo., USA) and 5 μg/ml fibronectin (Sigma-Aldrich). LUHMES (Lund Human Mesencephalic) cells, derived from human embryonic ventral mesencephalic cells by conditional immortalization (Tet-off v-myc over-expression) were seeded out in a concentration of 130,000 cells/cm^2 to achieve a confluence of 50%. […]
Concentrated lentiviral particles were titrated by transducing LUHMES cells with different dilutions at 6 hours after initiating differentiation. The lowest dilution at which at least 90% of cells expressed the transgene (as determined by immunohistochemistry of the cells fixed on day 2 post differentiation) was chosen for subsequent experiments. […]
Thiazolyl Blue Tetrazolium […] (Sigma Aldrich) was dissolved in sterile PBS to a concentration of 5 mg/ml. […] 100 μl from each well were transferred to a new 96-well plate and the absorbance was read with the FLUOstar Omega (BMG Labtech) platereader at a wavelength of 590 nm (reference wave length 630 nm). The data was analyzed using the MARS Data Analysis Software (BMG Labtech) and Prism 6.

The test system of a further test is tau. In words: Western blot of tau phosphorylation, 4R-tau overexpression model. Type of test: cell-based, human. As to conditions: 4R-tau overexpressing lentivirus 8 days + PERK activator. Here is the method:
Nunc™ Nunclon™ Delta 6-well (for protein and mRNA) or 48-well (for cell assays) plates (Thermo Fisher Scientific, Waltham, Mass., USA) were coated with 100 μg/ml poly-L-lysine (Sigma-Aldrich, St. Louis, Mo., USA) and 5 μg/ml fibronectin (Sigma-Aldrich). LUHMES (Lund Human Mesencephalic) cells, derived from human embryonic ventral mesencephalic cells by conditional immortalization (Tet-off v-myc over-expression) were seeded out in a concentration of 130,000 cells/cm^2 to achieve a confluence of 50%. They were then differentiated for 8 days in a medium of DMEM/F12 (Sigma-Aldrich), 1 μg/ml tetracycline, […] and 490 μg/ml dbcAMP into post-mitotic neurons with a dopaminergic phenotype (Lotharius et al. 2005).
For all experiments with annonacin, the medium was replaced during the intoxication period with new medium containing glucose levels reduced to 250 μM, i.e. the physiological concentration in the human brain.
Concentrated lentiviral particles were titrated by transducing LUHMES cells with different dilutions at 6 hours after initiating differentiation. The lowest dilution at which at least 90% of cells expressed the transgene (as determined by immunohistochemistry of the cells fixed on day 2 post differentiation) was chosen for subsequent experiments. For these, concentrated lentiviral particles were again added into the medium on day 0, 6 hours after initiating differentiation.
Protein was extracted by scraping the cells from the culture plate with Mammalian Protein Extraction Reagent (M-PER, Thermo Fisher Scientific) and 1× cOmplete Protease Inhibitor Cocktail Tablets (Hoffmann-La Roche, Basel, Switzerland) and 1× PhosSTOP Phosphatase Inhibitor Cocktail Tablets (Hoffmann-La Roche). For pNRF2 blots, cells were extracted with 2% SDS tris-buffer instead of M-PER in order to obtain whole cell extracts and not to lose the nuclear fraction. […] Protein concentrations were determined using the BCA kit (Thermo Fisher Scientific) by heating the samples at 60° C. for 30 min and measuring the absorption on the NanoDrop 2000c Spectrophotometer (Thermo Fisher Scientific). […]

`CCN(CC)CCC(=O)N1N=C(c2c(-c3ccccc3)c3cc(Br)ccc3[nH]c2=O)CC1c1ccc(Br)cc1` (stereo not shown) [CCT020312, 6-bromo-3-[5-(4-bromo-phenyl)-1-(3-diethylamino-propionyl)-4,5-dihydro-1H-pyrazol-3-yl]-4-phenyl-1H-quinolin-2-one]: the “4R-specific toxicity in MTT assay” value in test [1] is reported as “reduced significantly”. Also, in the test on tau, the AD2-positive tau result was “not altered”, the “CP13 (Ser-202) phosphorylated tau” value is on record as “significantly reduced” and the HT7-positive tau result is recorded as “not altered”.
